Assays:
[1] = system: cerebral extracellular levels of lactate; experiment: In vivo pharmacodynamics - lactate biosensors; parameters: species or system mouse; details: 3 h recording, freely moving mice, vs vehicle
Procedure: (§1) For pharmacodynamics (FIG. 4) and cognition (FIG. 6) experiments, adult male C57Bl/6J wild-type mice weighting 18-28 g (8 weeks of age) were used (Charles River). For ALS mouse models (FIG. 5), G93A SOD1 transgenic male and female mice on B6.SJL1-Gur/J background were used (Jackson Laboratory).
(§2) Animals were housed in groups of 3-5 in polypropylene cages (30×40×15 cm) with wire mesh top in a temperature (22±2° C.) and humidity (55±15%) controlled environment on a 12 hour light cycle (07.00-19.00 h lights on), except after surgeries when animal were housed individually. […]
Cerebral extracellular levels of lactate were monitored in vivo using lactate biosensors (Pinnacle Technology), according to the manufacturer's instructions. […] After surgery, mice were monitored closely and received analgesic treatment for at least 4 days. […] Concentrations of cerebral extracellular lactate were calculated from lactate probe electric signals using post-calibration values. […] Area Under the Curve (AUC) of lactate concentration curves were calculated using Graphad Prism and the ratio of AUC after drug over Vehicle administration was calculated.

[2] = system: G93A SOD1 mouse model of ALS; experiment: SOD1 G93A mouse ALS model - grip test; type: in vivo; details: vs vehicle
Procedure: as §1, §2
(§3) Transgenic mice on B6.SJL1-Gur/J background overexpressing the human mutated gene G93A SOD1 were used. […] F1 pups were genotyped after ear punching at weaning, using quantitative PCR (qPCR), which allowed determining the number of SOD1 copies in each mouse.
(§4) To test for the potential therapeutic effect of the administered compound, SOD1 mice were given orally the compound of the invention (10 mg/kg) or vehicle every day from post-natal day 30 (weaning) throughout their entire life. […] Each mouse's weight was recorded every day throughout the entire treatment, while neuromuscular function was measured once a week. […]

primary astrocytes [3] = experiment: Intracellular glycogen quantification in astrocytes; type: cell-based, mouse; details: 10 μM, 3 h, vs vehicle
Procedure: (§5) Primary cultures of cerebrocortical astrocytes were obtained from 1 to 2-day-old OF1 mouse pups (Charles River). Briefly, cortices were isolated and minced in small pieces under a dissecting microscope. The cells were incubated for 30 min at 37° C. in a solution containing 20 U/ml papain, 1 mM L-cysteine and 10 kU/ml DNase I. After dissociation, papain activity was stopped by the addition of fetal calf serum (FCS). Single-cell suspension was then obtained by mechanical dissociation, which consisted in cells trituration in a DMEM D7777 medium supplemented with 44 mm NaHCO3, 10 ml/L antibiotic/antimycotic solution and 10% FCS. […]
Astrocytes grown on 12-well plates were used for intracellular glycogen quantifications. […]
First, the amount of proteins in each sample was quantified to assess whether harvested astrocytes from primary cell cultures yielded enough and equivalent amounts of proteins on each replicates. Proteins were quantified using the micro BCA Protein Assay kit (Thermo Scientific), according to manufacturer's instructions. Next, intracellular glycogen concentrations were quantified using a 250 μl-aliquot of the same stimulated, thawed, and sonicated cell lysate. […] Fluorescence intensity (340 nm excitation/440 nm emission) was measured using a Safire 2 spectrophotometer. […]

C57Bl/6 wild-type mice = experiment: Long-term memory test - inhibitory avoidance (IA); type: in vivo, mouse; details: 100 mg/kg oral single dose 20 min before training
Procedure: as §1
Animals were housed in groups of 3-5 in polypropylene cages (30×40×15 cm) with wire mesh top in a temperature (22±2° C.) and humidity (55±15%) controlled environment on a 12 hour light cycle (07.00-19.00 h lights on), except after surgeries when animal were housed individually. The samples (Vehicle or compounds of the invention) were administered per os (gavage) in a solution made of water supplemented with 0.4% hydroxypropyl methylcellulose (HPMC) Methocel 4KM (w/v) and 0.25% Tween-20 (v/v), as previously described (Thackaberry et al., 2010, Toxicol Sci., 117(2):485-92). Concentrations of the compounds tested ranged from 10 to 100 mg/kg.
IA test is a well-established memory paradigm in rodents that measures contextual memory associated with a mild electrical footshock in a specific context (the dark compartment of the IA chamber). Groups of 8-week old C57Bl/6 wild-type […] mice were tested. Each mouse was handled for 5 minutes per day for at least 4 consecutive days to reduce animal's stress due to experimenter's presence/manipulation during test days. Inhibitory avoidance was carried out in an IA chamber (MedAssociates) that consists in a rectangular Perspex box divided into a safe and a shock compartment separated by an automatically operated sliding door. The safe compartment is white and illuminated while the shock compartment is black and dark. Mice were trained for IA 20 min after oral administration of the drug or vehicle. During training, mice were placed into the safe compartment with their heads facing away from the door. […] Memory retention was measured at 24 h or 3 weeks after training by placing the mouse back into the lit compartment and recording its latency (in seconds) to enter the dark compartment. […]

[4] = system: G93A SOD1 mouse model of ALS; experiment: SOD1 G93A mouse ALS model - survival; type: in vivo; details: 10 mg/kg orally every day from post-natal day 30 to final stage, G93A SOD1 mice, vs vehicle
Procedure: as §1, §2, §3, §4

[5] = system: primary cultures of cerebrocortical astrocytes; experiment: Extracellular lactate quantification (lactate release from primary astrocytes); type: cell-based; details: primary mouse astrocytes, 90 min
Procedure: as §5
Secretion of L-lactate was measured in the extracellular medium of 96-well plated astrocytes after 90 min stimulation (at 37° C., in 5% CO2/95% air conditions) with Vehicle (DMSO), the compounds of the invention (100 nM to 100 μM) or positive control. […] To quantify lactate concentrations in the extracellular medium, 200 μl of a 0.2M Glycine-semicarbazide buffer (pH 10) containing 3 mM NAD and 14 U/ml LDH was added to each well of a 96-well plate containing 30 μl aliquots of extracellular medium. […] Fluorescence intensity (340 nm excitation/450 nm emission), which represents the amount of NADH produced, was measured, and lactate concentration values were determined relative to a standard curve of L-lactate concentrations. […]

primary astrocytes [6] = experiment: MTT mitochondrial activity assay in astrocytes; type: cell-based, mouse; details: 24 h, maximum concentration (200 μM)
Procedure: Primary cultures of cerebrocortical astrocytes were obtained from 1 to 2-day-old OF1 mouse pups (Charles River). Briefly, cortices were isolated and minced in small pieces under a dissecting microscope. The cells were incubated for 30 min at 37° C. in a solution containing 20 U/ml papain, 1 mM L-cysteine and 10 kU/ml DNase I. After dissociation, papain activity was stopped by the addition of fetal calf serum (FCS). Single-cell suspension was then obtained by mechanical dissociation, which consisted in cells trituration in a DMEM D7777 medium supplemented with 44 mm NaHCO3, 10 ml/L antibiotic/antimycotic solution and 10% FCS. The cells were seeded at an average density of 6×10^4 cells/cm^2 on poly-D-lysine-coated 96- or 12-well culture plates, depending on their use, and grown in DMEM D7777 medium supplemented with 44 mm NaHCO3, 10 ml/L antibiotic/antimycotic solution and 10% FCS at 37° C. in a humidified atmosphere containing 5% CO2/95% air. Culture medium was renewed twice a week. Cells were stimulated and harvested between DIV14 and DIV17, when confluence and cell growth were optimal.
To monitor mitochondrial activity in astrocytes, which is linked to the metabolic process of glycolysis and production of lactate, astrocytes in 96-well plates were stimulated for 24 h (37° C. 5% CO2/95% air) with the compounds of the invention ranging from 0.2 to 200 μM. After stimulation, 5 mg/ml thiazol blue tetrazolium bromide (MTT) in D5030 medium complemented with 5 mM D-glucose and 44 mM sodium bicarbonate (pH 7.2) was added to each well, and cells were incubated for 4 h at 37° C. (5% CO2). The medium was then removed and the amount of reduced MTT, i.e formazan, solubilized in DMSO (50 μl/well) was determined using a spectrophotometer (absorbance of 570 nm).
The mitochondrial activity in primary astrocytes treated with Compounds (2) to (4) at concentrations ranging from 1 nM to 200 μM. After 24 h, mitochondrial activity was monitored in MTT colorimetric assay as described above (FIG. 3).

COc1cc2ccnc(Nc3ccc(OC(F)(F)F)cc3)c2cc1OC [Compound 1, 6,7-dimethoxy-N-(4-(trifluoromethoxy)phenyl)isoquinolin-1-amine]
Extracellular lactate levels in the brain ([1]; 10 mg/kg per os): significantly increases extracellular lactate levels | Extracellular lactate levels in the brain ([1]; 100 mg/kg per os): significantly increases extracellular lactate levels | Onset of symptoms (grip test) ([2]; 10 mg/kg orally every day from post-natal day 30, G93A SOD1 mice): delayed the onset of the symptoms | Muscle function (grip test) ([2]; 10 mg/kg orally every day from post-natal day 30, measured weekly until 16 weeks of age): remained significantly improved | Degradation of intracellular glycogen (primary astrocytes [3]): significantly enhances the degradation of intracellular glycogen | Latency to enter the dark compartment at training (C57Bl/6 wild-type mice): same latencies at training | Latency to enter the dark compartment, 3 weeks after training (C57Bl/6 wild-type mice; vs vehicle): significantly higher | Latency to enter the dark compartment, 24 h after training (C57Bl/6 wild-type mice; vs vehicle): significantly higher | Life span (Kaplan-Meier survival) [4]: significantly increased life span | Concentration at which the effect on lactate release is already significant [5]: below 1 μM | Remaining mitochondrial activity at maximum concentration compared to vehicle (primary astrocytes [6]): 8.05%

COc1cc2ccnc(Nc3ccc(C(F)(F)F)cc3)c2cc1OC [Compound 2, 6,7-dimethoxy-N-(4-(trifluoromethyl)phenyl)isoquinolin-1-amine]
Remaining mitochondrial activity at maximum concentration compared to vehicle (primary astrocytes [6]): 7.86%

FC(F)(F)Oc1ccc(Nc2nccc3ccccc23)cc1 [Compound 3, N-(4-(trifluoromethoxy)phenyl)isoquinolin-1-amine]
Remaining mitochondrial activity at maximum concentration compared to vehicle (primary astrocytes [6]): 35.9%

COc1cc2ccnc(Cc3ccc(OC(F)(F)F)cc3)c2cc1OC [Compound 4, 6,7-dimethoxy-1-(4-(trifluoromethoxy)benzyl)isoquinoline]
Remaining mitochondrial activity at maximum concentration compared to vehicle (primary astrocytes [6]): 77.3%

Source: US20210275516A1, “LACTATE ENHANCING COMPOUNDS AND USES THEREOF” (ECOLE POLYTECHNIQUE FEDERALE DE LAUSANNE (EPFL), priority 2018, published 2021)
